In one series the target is Bcl-2 protein (Homo sapiens (Human), UniProt P10415). The experiment in a line: Bcl-2 binding TR-FRET (Time-Resolved Fluorescence-Resonance-Energy-Transfer) assay. To be noted: inhibition constant for binding to Bcl-2 protein. An excerpt:
The smaller the Ki value, the greater is the binding affinity.
(In general: In TR-FRET formats the signal depends on donor and acceptor labels being close together.)
Bcl-2 protein, sequence (P10415 whole entry): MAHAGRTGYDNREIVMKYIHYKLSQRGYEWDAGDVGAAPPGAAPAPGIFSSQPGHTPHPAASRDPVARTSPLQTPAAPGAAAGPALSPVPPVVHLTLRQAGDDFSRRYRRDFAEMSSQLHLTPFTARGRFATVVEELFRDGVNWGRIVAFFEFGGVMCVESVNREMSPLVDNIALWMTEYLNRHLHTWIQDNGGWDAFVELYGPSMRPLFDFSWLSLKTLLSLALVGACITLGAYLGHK
Broadly, the Ki is the dissociation constant of the complex between target and ligand, obtained from inhibition or displacement. `CC1(C)CCC(CN2CCN(c3ccc(C(=O)NS(=O)(=O)c4ccc(NCC5COCCN5)c([N+](=O)[O-])c4)c(Oc4cnc5[nH]ccc5c4)c3)CC2)=C(c2ccc(Cl)cc2)C1` (stereo not drawn) [Compound 66, 4-(4-{[2-(4-chlorophenyl)-4,4-dimethylcyclohex-1-en-1-yl]methyl}piperazin-1-yl)-N-({4-[(morpholin-3-ylmethyl)amino]-3-nitrophenyl}sulfonyl)-2-(1H-pyrrolo[2,3-b]pyridin-5-yloxy)benzamide] showed a Ki of less than 0.01 nM.

Take `CN(C)CC(=O)N1CCOC(CNc2ccc(S(=O)(=O)NC(=O)c3ccc(N4CCN(CC5=C(c6ccc(Cl)cc6)CC(C)(C)CC5)CC4)cc3Oc3cnc4[nH]ccc4c3)cc2[N+](=O)[O-])C1` (stereo not drawn) [Compound 215, 4-(4-{[2-(4-chlorophenyl)-4,4-dimethylcyclohex-1-en-1-yl]methyl}piperazin-1-yl)-N-{[4-({[4-(N,N-dimethylglycyl)morpholin-2-yl]methyl}amino)-3-nitrophenyl]sulfonyl}-2-(1H-pyrrolo[2,3-b]pyridin-5-yloxy)benzamide]: the inhibition constant (Ki) was less than 0.01 nM.

Turning to `CC1(C)CCC(CN2CCN(c3ccc(C(=O)NS(=O)(=O)c4ccc(OCCOC5CCOC5)c([N+](=O)[O-])c4)c(Oc4cnc5[nH]ccc5c4)c3)CC2)=C(c2ccc(Cl)cc2)C1` (stereo not drawn) [Compound 275, 4-(4-{[2-(4-chlorophenyl)-4,4-dimethylcyclohex-1-en-1-yl]methyl}piperazin-1-yl)-N-({3-nitro-4-[2-(tetrahydrofuran-3-yloxy)ethoxy]phenyl}sulfonyl)-2-(1H-pyrrolo[2,3-b]pyridin-5-yloxy)benzamide], the Ki is less than 0.01 nM.

Test system in the next series: not listed separately
The experiment in a line: log D at pH 7.4 by an HPLC method.
Details: not given
In kind it is physicochemical. The text has this: Table 2 below presents data for log D (a parameter related to lipophilicity) at pH 7.4, as determined by an HPLC method, for representative compounds.
A word on the chromatographic logD: it is a lipophilicity value derived from retention on a column. High values mean a more lipophilic compound, low ones a more hydrophilic compound. Consider `CN1CCN(Nc2ccc(S(=O)(=O)NC(=O)c3ccc(N4CCN(CC5=C(c6ccc(Cl)cc6)CC(C)(C)CC5)CC4)cc3Oc3cnc4[nH]ccc4c3)cc2[N+](=O)[O-])CC1` [Compound 6, 4-(4-{[2-(4-chlorophenyl)-4,4-dimethylcyclohex-1-en-1-yl]methyl}piperazin-1-yl)-N-({4-[(4-methylpiperazin-1-yl)amino]-3-nitrophenyl}sulfonyl)-2-(1H-pyrrolo[2,3-b]pyridin-5-yloxy)benzamide], for which the chromatographic logD amounted to 5.74.

Consider `CC1(C)CCC(CN2CCN(c3ccc(C(=O)NS(=O)(=O)c4ccc(N[C@H]5CC[C@H](N6CCOCC6)CC5)c([N+](=O)[O-])c4)c(Oc4cnc5[nH]ccc5c4)c3)CC2)=C(c2ccc(Cl)cc2)C1` [Compound 9, trans-4-(4-{[2-(4-chlorophenyl)-4,4-dimethylcyclohex-1-en-1-yl]methyl}piperazin-1-yl)-N-({4-[(4-morpholin-4-ylcyclohexyl)amino]-3-nitrophenyl}sulfonyl)-2-(1H-pyrrolo[2,3-b]pyridin-5-yloxy)benzamide], for which the chromatographic logD was 5.71.

Consider `CC1(C)CCC(CN2CCN(c3ccc(C(=O)NS(=O)(=O)c4ccc(NCC5CCC(F)(F)CC5)c([N+](=O)[O-])c4)c(Oc4cnc5[nH]ccc5c4)c3)CC2)=C(c2ccc(Cl)cc2)C1` [Compound 239, 4-(4-{[2-(4-chlorophenyl)-4,4-dimethylcyclohex-1-en-1-yl]methyl}piperazin-1-yl)-N-[(4-{[(4,4-difluorocyclohexyl)methyl]amino}-3-nitrophenyl)sulfonyl]-2-(1H-pyrrolo[2,3-b]pyridin-5-yloxy)benzamide], for which the chromatographic logD was 5.92.

The compound `O=C(NS(=O)(=O)c1ccc(NCC2CCOCC2)c([N+](=O)[O-])c1)c1ccc(N2CCN(Cc3ccccc3-c3ccc(Cl)cc3)CC2)cc1Oc1ccc2[nH]ccc2c1` [Compound 87, 4-{4-[(4′-chloro-1,1′-biphenyl-2-yl)methyl]piperazin-1-yl}-2-(1H-indol-5-yloxy)-N-({3-nitro-4-[(tetrahydro-2H-pyran-4-ylmethyl)amino]phenyl}sulfonyl)benzamide] came in with a chromatographic logD of 5.86.

Usually log D stands for lipophilicity at a set pH, counting ionised and neutral species. High values mean higher lipophilicity, low ones lower lipophilicity. On to `CC1(C)CCC(CN2CCN(c3ccc(C(=O)NS(=O)(=O)c4ccc(NC[C@H]5CC[C@@](C)(O)CC5)c([N+](=O)[O-])c4)c(Oc4cnc5[nH]ccc5c4)c3)CC2)=C(c2ccc(Cl)cc2)C1` [Compound 337, 4-(4-{[2-(4-chlorophenyl)-4,4-dimethylcyclohex-1-en-1-yl]methyl}piperazin-1-yl)-N-[(4-{[(trans-4-hydroxy-4-methylcyclohexyl)methyl]amino}-3-nitrophenyl)sulfonyl]-2-(1H-pyrrolo[2,3-b]pyridin-5-yloxy)benzamide], for which the pH-dependent lipophilicity (log D) stood at 5.48.

Take `CN1CCC(Nc2ccc(S(=O)(=O)NC(=O)c3ccc(N4CCN(CC5=C(c6ccc(Cl)cc6)CC(C)(C)CC5)CC4)cc3Oc3ccc4[nH]ccc4c3)cc2[N+](=O)[O-])CC1` [Compound 90, 4-(4-{[2-(4-chlorophenyl)-4,4-dimethylcyclohex-1-en-1-yl]methyl}piperazin-1-yl)-2-(1H-indol-5-yloxy)-N-({4-[(1-methylpiperidin-4-yl)amino]-3-nitrophenyl}sulfonyl)benzamide]: the chromatographic logD turned out to be 6.69.

For `COCCNc1ccc(S(=O)(=O)NC(=O)c2ccc(N3CCN(CC4=C(c5ccc(Cl)cc5)CC(C)(C)CC4)CC3)cc2Oc2ccc3[nH]ccc3c2)cc1[N+](=O)[O-]` [Compound 20, 4-(4-{[2-(4-chlorophenyl)-4,4-dimethylcyclohex-1-en-1-yl]methyl}piperazin-1-yl)-2-(1H-indol-5-yloxy)-N-({4-[(2-methoxyethyl)amino]-3-nitrophenyl}sulfonyl)benzamide], the chromatographic logD was found to be 6.24.

For `CC1(C)CCC(CN2CCN(c3ccc(C(=O)NS(=O)(=O)c4ccc(NC[C@H]5CC[C@H](C#N)CC5)c([N+](=O)[O-])c4)c(Oc4cnc5[nH]ccc5c4)c3)CC2)=C(c2ccc(Cl)cc2)C1` [Compound 276, 4-(4-{[2-(4-chlorophenyl)-4,4-dimethylcyclohex-1-en-1-yl]methyl}piperazin-1-yl)-N-[(4-{[(trans-4-cyanocyclohexyl)methyl]amino}-3-nitrophenyl)sulfonyl]-2-(1H-pyrrolo[2,3-b]pyridin-5-yloxy)benzamide], the chromatographic logD was determined as 5.59.

On to `CC1(C)CCC(CN2CCN(c3ccc(C(=O)NS(=O)(=O)c4ccc(NCC5CCOCC5)c([N+](=O)[O-])c4)c(Oc4cnc5[nH]ccc5c4)c3)CC2)=C(c2ccc(Cl)cc2)C1` [Compound 5, 4-(4-{[2-(4-chlorophenyl)-4,4-dimethylcyclohex-1-en-1-yl]methyl}piperazin-1-yl)-N-({3-nitro-4-[(tetrahydro-2H-pyran-4-ylmethyl)amino]phenyl}sulfonyl)-2-(1H-pyrrolo[2,3-b]pyridin-5-yloxy)benzamide], for which the chromatographic logD is 5.37.

In turn, `CC1(C)CCC(CN2CCN(c3ccc(C(=O)NS(=O)(=O)c4ccc(OCC5COCCO5)c([N+](=O)[O-])c4)c(Oc4ccc5[nH]ccc5c4)c3)CC2)=C(c2ccc(Cl)cc2)C1` (stereo not drawn) [Compound 92, 4-(4-{[2-(4-chlorophenyl)-4,4-dimethylcyclohex-1-en-1-yl]methyl}piperazin-1-yl)-N-{[4-(1,4-dioxan-2-ylmethoxy)-3-nitrophenyl]sulfonyl}-2-(1H-indol-5-yloxy)benzamide] yielded a chromatographic logD of 5.6.

The compound `CC1(C)CCC(CN2CCN(c3ccc(C(=O)NS(=O)(=O)c4ccc(NC5CCN(C6CCOCC6)CC5)c([N+](=O)[O-])c4)c(Oc4ccc5[nH]ccc5c4)c3)CC2)=C(c2ccc(Cl)cc2)C1` [Compound 89, 4-(4-{[2-(4-chlorophenyl)-4,4-dimethylcyclohex-1-en-1-yl]methyl}piperazin-1-yl)-2-(1H-indol-5-yloxy)-N-({3-nitro-4-[(1-tetrahydro-2H-pyran-4-ylpiperidin-4-yl)amino]phenyl}sulfonyl)benzamide] had a chromatographic logD of 6.21.

In the case of `CC1(C)CCC(CN2CCN(c3ccc(C(=O)NS(=O)(=O)c4ccc(NCC5CCOCC5)c([N+](=O)[O-])c4)c(Oc4ccc5[nH]ccc5c4)c3)CC2)=C(c2ccc(Cl)cc2)C1` [Compound 18, 4-(4-{[2-(4-chlorophenyl)-4,4-dimethylcyclohex-1-en-1-yl]methyl}piperazin-1-yl)-2-(1H-indol-5-yloxy)-N-({3-nitro-4-[(tetrahydro-2H-pyran-4-ylmethyl)amino]phenyl}sulfonyl)benzamide], the chromatographic logD was found to be 6.35. The chromatographic logD values of the last two compounds are within 0.2 log units of each other.

Regarding `CC1(C)CCC(CN2CCN(c3ccc(C(=O)NS(=O)(=O)c4ccc(OC[C@H]5CC[C@H](N6CCOCC6)CC5)c(Cl)c4)c(Oc4cnc5[nH]ccc5c4)c3)CC2)=C(c2ccc(Cl)cc2)C1` [Compound 303, N-[(3-chloro-4-{[trans-4-(morpholin-4-yl)cyclohexyl]methoxy}phenyl)sulfonyl]-4-(4-{[2-(4-chlorophenyl)-4,4-dimethylcyclohex-1-en-1-yl]methyl}piperazin-1-yl)-2-(1H-pyrrolo[2,3-b]pyridin-5-yloxy)benzamide], the chromatographic logD is 6.24.

Compound `CC1(C)CCC(CN2CCN(c3ccc(C(=O)NS(=O)(=O)c4cnc(NCC5(F)CCOCC5)c(Cl)c4)c(Oc4cnc5[nH]ccc5c4)c3)CC2)=C(c2ccc(Cl)cc2)C1` [Compound 242, N-[(5-chloro-6-{[(4-fluorotetrahydro-2H-pyran-4-yl)methyl]amino}pyridin-3-yl)sulfonyl]-4-(4-{[2-(4-chlorophenyl)-4,4-dimethylcyclohex-1-en-1-yl]methyl}piperazin-1-yl)-2-(1H-pyrrolo[2,3-b]pyridin-5-yloxy)benzamide] returned a chromatographic logD of 5.51.

In turn, `CC1(C)CCC(CN2CCN(c3ccc(C(=O)NS(=O)(=O)c4cnc(OCC5(F)CCOCC5)c(C(F)(F)F)c4)c(Oc4cnc5[nH]ccc5c4)c3)CC2)=C(c2ccc(Cl)cc2)C1` [Compound 208, 4-(4-{[2-(4-chlorophenyl)-4,4-dimethylcyclohex-1-en-1-yl]methyl}piperazin-1-yl)-N-{[6-[(4-fluorotetrahydro-2H-pyran-4-yl)methoxy]-5-(trifluoromethyl)pyridin-3-yl]sulfonyl}-2-(1H-pyrrolo[2,3-b]pyridin-5-yloxy)benzamide] showed a chromatographic logD of 5.57.

For the origin of these results see patent US10213433B2 (AbbVie Inc., priority 2010, dated 2019).
